Blank lines part the entries; values can stand above or below the molecule they belong to.
Experiments:
Elg1-RFC–PCNA = system: T1, Elg1-RFC–PCNA; experiment: cryo-EM structure, […] Å (closed PCNA) and […] Å (cracked PCNA); type: binding, Saccharomyces cerevisiae; conditions: glutaraldehyde cross-linked
T1 construct: with Proliferating cell nuclear antigen

Elg1-RFC [1] = system: T2, Elg1-RFC; experiment: cryo-EM structure, […] Å; type: binding, Saccharomyces cerevisiae
T2 construct: heteropentamer; 3xFLAG-Elg1 and Rfc5 (pLANT-2RIL) with Rfc2, Rfc3, Rfc4 (pET11a) co-expressed in E. coli BLR(DE3) (results text says expressed in yeast); anti-FLAG and MonoS; no tag removal told
T2 sequence (P40348 whole entry, one chain of several, further chain): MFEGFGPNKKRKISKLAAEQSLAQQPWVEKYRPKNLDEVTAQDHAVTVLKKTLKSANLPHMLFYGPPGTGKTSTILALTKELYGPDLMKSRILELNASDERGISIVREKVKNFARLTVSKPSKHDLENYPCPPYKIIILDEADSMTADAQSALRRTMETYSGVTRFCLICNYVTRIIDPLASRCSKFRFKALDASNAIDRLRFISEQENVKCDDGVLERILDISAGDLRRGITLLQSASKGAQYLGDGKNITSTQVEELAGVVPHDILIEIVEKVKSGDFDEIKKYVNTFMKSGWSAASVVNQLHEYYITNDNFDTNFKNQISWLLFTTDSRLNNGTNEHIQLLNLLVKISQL
T2 sequence (P38251 whole entry, one chain of several, further chain): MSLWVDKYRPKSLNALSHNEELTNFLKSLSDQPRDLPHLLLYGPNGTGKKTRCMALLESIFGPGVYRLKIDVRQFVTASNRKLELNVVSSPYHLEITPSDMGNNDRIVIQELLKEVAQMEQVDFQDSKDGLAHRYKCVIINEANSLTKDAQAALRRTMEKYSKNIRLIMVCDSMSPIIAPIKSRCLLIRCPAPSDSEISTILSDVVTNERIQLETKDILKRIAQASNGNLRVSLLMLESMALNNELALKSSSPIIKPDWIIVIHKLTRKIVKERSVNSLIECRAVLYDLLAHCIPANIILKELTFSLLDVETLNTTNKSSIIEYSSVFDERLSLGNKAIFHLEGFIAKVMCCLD

Elg1-RFC [2] = system: T2, Elg1-RFC; experiment: […]-PCNA unloading from nicked plasmid, gel filtration; type: biochemical, Saccharomyces cerevisiae; conditions: 2 mM AMP-PNP, 56 nM Elg1-RFC, 0.69 nM 32P-PCNA-DNA, 8 mM MgCl2, 100 mM NaCl, pH 7.5, 30 °C, 2 min; supports unloading without hydrolysis
[3] = biological target: the molecule itself; experiment: cryo-EM structure; Elg1-RFC 2.9 uM, PCNA clamp 1.3 uM, 5'-tailed DNA 28.7 uM, ATPgammaS 0.5 mM, Mg-acetate 6.7 mM, ice-water bath, then cross-linked with glutaraldehyde and quenched with Tris; no DNA seen in the maps; closed and cracked PCNA ring
[4] = biological target: T3, Elg1 (enhanced levels of genome instability 1), subunit of Elg1-RFC (S. cerevisiae, UniProt Q12050 1-791); experiment: as above; conditions: both partners purified
T3 construct: Elg1 (enhanced levels of genome instability 1), S. cerevisiae; Stood in the assay as a subunit of the Elg1-RFC pentamer; also called 3xFLAG-Elg1; Elg1 subunit; source: E. coli BLR(DE3), co-expressed with Rfc2-5, purified as Elg1-RFC (anti-FLAG resin, MonoS)
T3 sequence (looked up): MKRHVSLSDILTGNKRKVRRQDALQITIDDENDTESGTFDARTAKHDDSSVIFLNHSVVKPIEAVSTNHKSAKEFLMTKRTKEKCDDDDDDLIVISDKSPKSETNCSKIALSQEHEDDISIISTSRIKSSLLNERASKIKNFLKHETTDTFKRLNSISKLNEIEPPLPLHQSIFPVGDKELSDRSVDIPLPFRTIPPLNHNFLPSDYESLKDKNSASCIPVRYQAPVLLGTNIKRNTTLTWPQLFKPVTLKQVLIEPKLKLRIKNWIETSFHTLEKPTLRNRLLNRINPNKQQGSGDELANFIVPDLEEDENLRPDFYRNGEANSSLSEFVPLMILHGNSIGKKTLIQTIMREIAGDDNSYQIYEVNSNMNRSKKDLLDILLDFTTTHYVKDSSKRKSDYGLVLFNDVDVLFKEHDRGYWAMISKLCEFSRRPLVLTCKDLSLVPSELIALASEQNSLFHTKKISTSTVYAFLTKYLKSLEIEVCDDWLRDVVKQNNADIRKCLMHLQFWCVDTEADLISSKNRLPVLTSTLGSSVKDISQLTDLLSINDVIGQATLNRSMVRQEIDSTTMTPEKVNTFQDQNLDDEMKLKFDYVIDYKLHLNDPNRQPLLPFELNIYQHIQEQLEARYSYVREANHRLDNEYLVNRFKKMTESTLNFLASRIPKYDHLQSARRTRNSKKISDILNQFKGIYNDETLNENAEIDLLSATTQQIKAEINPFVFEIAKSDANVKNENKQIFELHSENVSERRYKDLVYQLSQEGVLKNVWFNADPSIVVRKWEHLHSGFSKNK

[5] = biological target: T4, Rfc4, subunit of Elg1-RFC (S. cerevisiae, UniProt P40339 1-323); experiment: as above; conditions: both partners purified
T4 construct: Rfc4, S. cerevisiae replication factor C subunit 4; Stood in the assay as a subunit of the Elg1-RFC pentamer; source: E. coli BLR(DE3), co-expressed with Elg1 and Rfc2, 3, 5, purified as Elg1-RFC (anti-FLAG resin, MonoS)
T4 sequence: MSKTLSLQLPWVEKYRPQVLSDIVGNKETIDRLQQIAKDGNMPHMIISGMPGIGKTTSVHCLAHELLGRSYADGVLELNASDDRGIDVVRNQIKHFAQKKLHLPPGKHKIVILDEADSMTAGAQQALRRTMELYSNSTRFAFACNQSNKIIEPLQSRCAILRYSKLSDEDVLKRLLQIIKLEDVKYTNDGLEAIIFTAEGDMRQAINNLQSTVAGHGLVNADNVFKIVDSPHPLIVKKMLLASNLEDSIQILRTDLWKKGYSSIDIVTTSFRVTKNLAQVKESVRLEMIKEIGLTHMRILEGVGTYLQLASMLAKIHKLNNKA

[6] = biological target: T5, Rfc3, subunit of Elg1-RFC (S. cerevisiae, UniProt P38629 1-340); experiment: as above; conditions: both partners purified
T5 construct: Rfc3, S. cerevisiae replication factor C subunit 3; Stood in the assay as a subunit of the Elg1-RFC pentamer; source: E. coli BLR(DE3), co-expressed with Elg1 and Rfc2, 4, 5, purified as Elg1-RFC (anti-FLAG resin, MonoS)
T5 sequence: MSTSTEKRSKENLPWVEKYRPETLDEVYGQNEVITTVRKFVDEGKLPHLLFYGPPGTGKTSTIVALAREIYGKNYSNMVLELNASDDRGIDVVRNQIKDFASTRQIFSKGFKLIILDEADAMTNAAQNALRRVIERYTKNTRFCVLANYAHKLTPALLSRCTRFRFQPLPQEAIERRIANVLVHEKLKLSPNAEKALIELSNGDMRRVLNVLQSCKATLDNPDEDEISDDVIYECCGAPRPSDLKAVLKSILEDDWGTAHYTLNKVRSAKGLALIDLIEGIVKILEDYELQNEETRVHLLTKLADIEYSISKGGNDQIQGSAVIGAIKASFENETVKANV

[7] = site in Rfc5, ADP not listed among added components

T1 sequence (P40348 whole entry, one chain of several, further chain): as the sequence (P40348 whole entry, one chain of several, further chain) above
T1 sequence (P38251 whole entry, one chain of several, further chain): as the sequence (P38251 whole entry, one chain of several, further chain) above

Molecule: Nc1ncnc2c1ncn2[C@@H]1O[C@H](COP(=O)(O)OP(=O)(O)O)[C@@H](O)[C@H]1O [ADP]
cryo-EM structure, 3.3 Å (closed PCNA) and 3.7 Å (cracked PCNA) (Elg1-RFC–PCNA; [7]): In all three Elg1-RFC structures, we found five bound nucleotides | cryo-EM structure, 3.2 Å (Elg1-RFC [1]; [7]): four ATPγS in Rfc2, Rfc3, Rfc4, and Elg1, and one ADP in Rfc5

Molecule: Nc1ncnc2c1ncn2[C@@H]1O[C@H](COP(=O)(O)OP(=O)(O)NP(=O)(O)O)[C@@H](O)[C@H]1O [AMP-PNP]
32P-PCNA unloading from nicked plasmid, gel filtration (Elg1-RFC [2]): Elg1-RFC can unload PCNA from DNA with non-hydrolyzable AMP-PNP

Molecule: Nc1ncnc2c1ncn2[C@@H]1O[C@H](COP(=O)(O)OP(=O)(O)OP(O)(O)=S)[C@@H](O)[C@H]1O [ATPγS]
cryo-EM structure, 3.3 Å (closed PCNA) and 3.7 Å (cracked PCNA) (Elg1-RFC–PCNA; 0.5 mM ATPγS final (1 mM in results text), 6.7 mM Mg-acetate, sites in Rfc2, Rfc3, Rfc4 and Elg1): In all three Elg1-RFC structures, we found five bound nucleotides: four ATPγS in Rfc2, Rfc3 | cryo-EM structure, 3.2 Å (Elg1-RFC [1]; 0.5 mM ATPγS final (1 mM in results text), 6.7 mM Mg-acetate, sites in Rfc2, Rfc3, Rfc4 and Elg1, Elg1 site without Mg density): four ATPγS in Rfc2, Rfc3, Rfc4, and Elg1, and one ADP in Rfc5

binding result [4]: binds | binding result [5]: binds | binding result [6]: binds
B1: proliferating cell nuclear antigen (PCNA), S. cerevisiae (natural protein)
chain: MLEAKFEEASLFKRIIDGFKDCVQLVNFQCKEDGIIAQAVDDSRVLLVSLEIGVEAFQEYRCDHPVTLGMDLTSLSKILRCGNNTDTLTLIADNTPDSIILLFEDTKKDRIAEYSLKLMDIDADFLKIEELQYDSTLSLPSSEFSKIVRDLSQLSDSINIMITKETIKFVADGDIGSGSVIIKPFVDMEHPETSIKLEMDQPVDLTFGAKYLLDIIKGSSLSDRVGIRLSSEAPALFQFDLKSGFLQFFLAPKFNDEE
notes: PCNA, S. cerevisiae sliding clamp; Homotrimeric ring; In the unloading assays the kinase site was labelled with 32P; also called PCNA clamp; PCNA ring
stoichiometry N [3]: 3
